Consider 8 molecules from US20180206495A1, “SUBSTITUTED ARYL AND HETEROARYL CARBOXYLIC ACID HYDRAZIDES OR SALTS THEREOF AND USE THEREOF TO INCREASE STRESS TOLERANCE IN PLANTS” (BAYER CROPSCIENCE AKTIENGESELLSCHAFT, priority 2015, published 2018).

For assay [1], the system named is Brassica napus. Nature of the assay: In vivo analyses Part A: drought stress, spray application, visual damage scoring, Brassica napus. How it is done:
(§1) Seeds of monocotyledonous and dicotyledonous crop plants were sown in sandy loam in wood-fiber or plastic pots, covered with soil or sand and cultivated in a greenhouse under good growth conditions. The trial plants were treated at the early leaf stage (BBCH10-BBCH13). To assure uniform water supply before commencement of stress, the potted plants were supplied with water by dam irrigation prior to substance application. The inventive compounds formulated in the form of wettable powders (WP) were sprayed onto the green parts of the plants as an aqueous suspension at an equivalent water application rate of 600 l/ha with addition of 0.2% wetting agent (e.g. agrotin). Substance application was followed immediately by stress treatment of the plants. For this purpose, the wood-fiber pots were transferred in plastic inserts in order to prevent them from subsequently drying out too quickly. Drought stress was induced by gradual drying out under the following conditions: “Day”: 14 hours with illumination at ˜26-30° C. “Night”: 10 hours without illumination at ˜18-20° C. The duration of the respective stress phases was guided mainly by the condition of the stressed control plants. It was ended (by re-irrigating and transfer to a greenhouse with good growth conditions) as soon as irreversible damage was observed on the stressed control plants. The end of the stress phase was followed by an about 4-7-day recovery phase, during which the plants were once again kept under good growth conditions in a greenhouse. The duration of the recovery phase was guided mainly by when the trial plants had attained a state which enabled visual scoring of potential effects, and is therefore variable. Once this juncture was reached, the intensities of damage were scored visually in comparison to untreated, unstressed controls of the same age. The damage intensity was at first assessed in per cent. These values were then used to calculate the efficacy of the test compounds by the following formula: [formula] EF: Efficacy DIs: Damage intensity of the stressed control plants DIt: Damage intensity of the stressed plants treated with test compound The values reported in tables A-1 to A-3 below are mean values from at least one trial with at least two repeats, showing the effects of selected compounds of the general formula (I) under drought stress on various crop plants.

Assay [2] relates to Triticum aestivum. Nature of the assay: In vivo analyses Part A: drought stress, spray application, visual damage scoring, Triticum aestivum. How it is done: as §1
For assay [3], the system named is Zea mays. As to the kind of experiment: In vivo analyses Part A: drought stress, spray application, visual damage scoring, Zea mays. The protocol: as §1
The test system of assay [4] is Triticum aestivum. As to the kind of experiment: In vivo analyses Part B: drought stress, spray application, appearance vs stressed control in categories, Triticum aestivum. Details: key: 0: no positive effect; +: slight positive effect; ++: clear positive effect; +++: strong positive effect. The following applies: dosage 250 g/ha. The protocol:
Seeds of monocotyledonous and dicotyledonous crop plants were sown in sandy loam in plastic pots, covered with soil or sand and cultivated in a greenhouse under good growth conditions. The test plants are treated at the early leaf stage (BBCH10-BBCH13). To assure uniform water supply before commencement of stress, the potted plants were supplied with water by dam irrigation prior to substance application. The inventive compounds were first formulated as wettable powders (WP) or dissolved in a solvent mixture. The further dilution was effected with water supplemented with 0.2% wetting agent (e.g. agrotin). The finished spray liquor was sprayed onto the green parts of the plant at an equivalent water application rate of 600 l/ha. Substance application was followed immediately by stress treatment of the plants. Drought stress was induced by gradual drying out under the following conditions: “Day”: 14 hours with illumination at ˜26-30° C. “Night”: 10 hours without illumination at ˜18-20° C. The duration of the respective stress phases was guided mainly by the condition of the stressed control plants. It was ended (by re-irrigating and transfer to a greenhouse with good growth conditions) as soon as irreversible damage was observed on the stressed control plants. The end of the stress phase was followed by an about 4-7-day recovery phase, during which the plants were once again kept under good growth conditions in a greenhouse. The duration of the recovery phase was guided mainly by when the trial plants had attained a state which enabled visual scoring of potential effects, and was therefore variable. Once this juncture had been reached, the appearance of the plants treated with test substances was recorded in comparison to the stressed control plants by the following categories: • 0 no positive effect • + slight positive effect • ++ clear positive effect • +++ strong positive effect In order to rule out any influence on the effects observed by any fungicidal or insecticidal action of the test compounds, it was additionally ensured that the tests proceeded without fungal infection or insect infestation. The values reported in tables B-1 and B-2 below are mean values of the results from at least three repeats. Effects of selected compounds of the general formula (I) under drought stress according to the following tables B-1 and B-2: […]

As for `COc1c(C)cnc(CN(C(=O)c2ccccc2C(F)(F)F)N(C)C)c1C` [A1-37], the “EF [%] (BRSNS)” value in assay [1] (dosage 2.5 g/ha) was over 5%. In assay [2] (dosage 250 g/ha), the “EF [%] (TRZAS)” value is reported as over 5%.
Consider `CN(C)N(Cc1nccc(Cl)c1Cl)C(=O)c1ccccc1C(F)(F)F` [A1-40, N-[(3,4-Dichloropyridin-2-yl)methyl]-N′,N′-dimethyl-2-(trifluoromethyl)benzohydrazide], for which, in assay [3] (dosage 250 g/ha), the “EF [%] (ZEAMX)” value is recorded as over 5%. Besides, the “Effect (TRZAS)” value in assay [4] is given as “++”. Also, the “EF [%] (BRSNS)” value in assay [1] (dosage 2.5 g/ha) was over 5%. The “EF [%] (TRZAS)” value in assay [2] (dosage 250 g/ha) is on record as over 5%.
With `COc1ccccc1C(=O)N(Cc1ccccn1)N(C)C` [A8-21], the “EF [%] (ZEAMX)” value in assay [3] (dosage 250 g/ha) was over 5%. Moreover, the “EF [%] (BRSNS)” value in assay [1] (dosage 25 g/ha) is over 5%. In addition, in assay [2] (dosage 250 g/ha), the “EF [%] (TRZAS)” value is over 5%.
For the molecule `COc1c(C)cnc(CN(C(=O)c2ccc(Cl)cc2Cl)N(C)C)c1C` [A12-37], the “EF [%] (BRSNS)” value in assay [1] (dosage 25 g/ha) is given as over 5%. The “EF [%] (TRZAS)” value in assay [2] (dosage 25 g/ha) is reported as over 5%.
With `CN(C)N(Cc1ccc(Br)cc1F)C(=O)c1ccc(Cl)cc1Cl` [A12-44], the “EF [%] (ZEAMX)” value in assay [3] (dosage 250 g/ha) was over 5%. The “EF [%] (BRSNS)” value in assay [1] (dosage 25 g/ha) is over 5%. Moreover, the “EF [%] (TRZAS)” value in assay [2] (dosage 250 g/ha) was over 5%.
Consider `Cc1ccc(C(F)(F)F)c(C(=O)N(Cc2ccccn2)N(C)C)c1` [A13-21], for which, in assay [3] (dosage 250 g/ha), the “EF [%] (ZEAMX)” value is recorded as over 5%. Besides, in assay [1] (dosage 25 g/ha), the “EF [%] (BRSNS)” value was over 5%. In assay [2] (dosage 250 g/ha), the “EF [%] (TRZAS)” value is on record as over 5%.
Consider `Cc1c(OCC(F)(F)F)ccnc1CN(C(=O)c1cnccc1C(F)(F)F)N(C)C` [B1-144], for which the “EF [%] (BRSNS)” value in assay [1] (dosage 25 g/ha) is on record as over 5%. Further, the “EF [%] (TRZAS)” value in assay [2] (dosage 25 g/ha) is listed as over 5%.
As to `CN(C)N(Cc1cccc([N+](=O)[O-])c1)C(=O)c1ccncc1` [C1-111], the “EF [%] (ZEAMX)” value in assay [3] (dosage 25 g/ha) is over 5%. The “EF [%] (BRSNS)” value in assay [1] (dosage 2.5 g/ha) is recorded as over 5%. Further, in assay [2] (dosage 25 g/ha), the “EF [%] (TRZAS)” value is over 5%.
